# Measured values from article PMC3356383, “Efficacious Intermittent Dosing of a Novel JAK2 Inhibitor in Mouse Models of Polycythemia Vera” (PLoS ONE, 2012).
# Marks after values point to notes of the source that are not given here.
# Tests used:
# spleen cell populations = assay: Cell populations in spleen of normal mice; type: in vivo; details: 54 mpk; for Spleen B-Cells B220+ / Spleen Cell Count / Spleen Myeloid Gr-1+ CD11b+ / Spleen NK-Cells NK1.1+ NKG2D+ / Spleen T-Cells CD4+ / Spleen T-Cells CD8+ / Spleen T-Cells Tregs CD25+CD127^lo / Spleen Weight / Spleen B-Cells MZ-B-cells CD21^hiCD23^lo: normal mice
# Description: Cells were stained in PBS, 0.5% BSA with antibodies for 15 min on ice. Stained cells were acquired on a 4-laser LSR-II (BD Biosciences) and data analyzed using FlowJo software (Treestar). Dead cells were labeled with the blue fluorescent LIVE/DEAD reactive dye (Invitrogen) and excluded from the analysis.
# Monoclonal antibodies (anti-mouse): CD3, CD4, CD5, CD8, CD11b, CD19, CD21/35, CD23, CD25, CD43, CD44, CD49b, CD69, CD71, CD93, CD117, B220, GR-1, IgD, NK1.1, NKG2A/C/E, NKG2D, Ter119 were purchased from BD Biosciences; CD4, CD8, CD49b, CD62L, TCRβ, TCRγδ from eBioscience; GR-1 from Invitrogen; CD43 from Miltenyi Biotec. Goat anti-mouse IgM-FITC, (μ chain specific) from Jackson Immuno Research.
# (§1) JAK2 and its family members JAK1 and JAK3 are known to signal downstream of cytokines that play essential roles in the development of lymphoid cell populations. To examine more thoroughly the effects of JAK2 inhibition on lymphoid cells, we analyzed wild-type (C57BL/6) mice treated with 54 mpk MRLB-11055 for 3 days, 6 days or up to 5 cycles of 3 days (“on”) followed by a 4 day holiday (“off”).
# Supplementary file pone.0037207.s004.doc: Table S2 Effect of MRLB-11055 on Cell Populations in Spleen of Normal Mice. Cell counts measured by Advia. Cycles refer to 3 days of treatment followed by a 4 day holiday. *p<0.05 in Student T test when comparing vehicle 5 cycle with treatment 5 cycle and vehicle 2 cycle with treatment 2 cycle, resp. (DOC) Click here for additional data file.
# [1] = system: peripheral blood cell populations; assay: Cell populations in peripheral blood of normal mice; type: in vivo, C57BL/6 mice; details: 54 mpk
# Description: as §1
# Supplementary file pone.0037207.s005.doc: Table S3 Effect of MRLB-11055 on Cell Populations in Peripheral Blood of Normal Mice. Cell counts measured by Advia. Cycles refer to 3 days of treatment followed by a 4 day holiday. *p<0.01 and **p<0.001 in Student T test when comparing vehicle with treatment. HCT, hematocrit; RBC, red blood cells; HGB, hemoglobin; WBC, white blood cells. (DOC) Click here for additional data file.
# [2] = 6 days of continuous treatment, wild-type C57BL/6 mice
# [3] = 2 cycles (3 days treatment, 4 day holiday)
# [4] = 5 cycles (3 days treatment, 4 day holiday)
smiles,measurement,setting,value
NC(=O)c1cnc(N[C@H](C2CC2)C(F)(F)F)c2c1[nH]c1cc(-c3cnc(N)nc3)ccc12 [MRLB-11055],Decrease of splenic B220+ B-cells,spleen cell populations; [2],2 fold
same,Decrease of splenic NK1.1+ cells,spleen cell populations; [2],25 fold
same,Reduction of any of the splenic lymphocytes tested,"spleen cell populations; intermittent dosing, 5 cycles of 3 days on and 4 days off",≤ 2 fold
same,Spleen B-Cells B220+,spleen cell populations; [3],30.9 ± 2.2 X10^6
same,Spleen Cell Count,spleen cell populations; [3],53.2 ± 1.2 X10^6
same,Spleen Myeloid Gr-1+ CD11b+,spleen cell populations; [3],0.67 ± 0.17 X10^6
same,Spleen NK-Cells NK1.1+ NKG2D+,spleen cell populations; [3],1.2 ± 0.2* X10^6
same,Spleen T-Cells CD4+,spleen cell populations; [3],6.5 ± 1.0* X10^6
same,Spleen T-Cells CD8+,spleen cell populations; [3],4.0 ± 0.4* X10^6
same,Spleen T-Cells Tregs CD25+CD127^lo,spleen cell populations; [3],0.4 ± 0.1 * X10^6
same,Spleen Weight,spleen cell populations; [3],76.3 ± 4.7 mg
same,Spleen B-Cells B220+,spleen cell populations; [4],31.2 ± 6.9 X10^6
same,Spleen B-Cells MZ-B-cells CD21^hiCD23^lo,spleen cell populations; [4],1.7 ± 0.4* X10^6
same,Spleen Cell Count,spleen cell populations; [4],59.4 ± 20.3 X10^6
same,Spleen Myeloid Gr-1+ CD11b+,spleen cell populations; [4],1.05 ± 0.76 X10^6
same,Spleen NK-Cells NK1.1+ NKG2D+,spleen cell populations; [4],0.9 ± 0.3* X10^6
same,Spleen T-Cells CD4+,spleen cell populations; [4],7.9 ± 1.9* X10^6
same,Spleen T-Cells CD8+,spleen cell populations; [4],4.9 ± 1.1* X10^6
same,Spleen T-Cells Tregs CD25+CD127^lo,spleen cell populations; [4],0.6 ± 0.2* X10^6
same,Spleen Weight,spleen cell populations; [4],92.5 ± 29.8 mg
same,Spleen B-Cells B220+,spleen cell populations; 3 days,24.2 ± 6.2* X10^6
same,Spleen B-Cells MZ-B-cells CD21^hiCD23^lo,spleen cell populations; 3 days,0.2 ± 0.2* X10^6
same,Spleen Cell Count,spleen cell populations; 3 days,36.2 ± 8.7* X10^6
same,Spleen Myeloid Gr-1+ CD11b+,spleen cell populations; 3 days,0.25 ± 0.13* X10^6
same,Spleen NK-Cells NK1.1+ NKG2D+,spleen cell populations; 3 days,0.10 ± 0.03* X10^6
same,Spleen T-Cells CD4+,spleen cell populations; 3 days,4.9 ± 0.8* X10^6
same,Spleen T-Cells CD8+,spleen cell populations; 3 days,4.7 ± 1.1* X10^6
same,Spleen T-Cells Tregs CD25+CD127^lo,spleen cell populations; 3 days,0.3 ± 0.1* X10^6
same,Spleen Weight,spleen cell populations; 3 days,50.5 ± 4.4* mg
same,Spleen B-Cells B220+,spleen cell populations; 6 days,16.9 ± 8.7* X10^6
same,Spleen B-Cells MZ-B-cells CD21^hiCD23^lo,spleen cell populations; 6 days,0.2 ± 0.2* X10^6
same,Spleen Cell Count,spleen cell populations; 6 days,26.5 ± 3.1* X10^6
same,Spleen Myeloid Gr-1+ CD11b+,spleen cell populations; 6 days,0.22 ± 0.09* X10^6
same,Spleen NK-Cells NK1.1+ NKG2D+,spleen cell populations; 6 days,0.07 ± 0.04* X10^6
same,Spleen T-Cells CD4+,spleen cell populations; 6 days,4.1 ± 1.7* X10^6
same,Spleen T-Cells CD8+,spleen cell populations; 6 days,3.2 ± 1.5* X10^6
same,Spleen T-Cells Tregs CD25+CD127^lo,spleen cell populations; 6 days,0.2 ± 0.1* X10^6
same,Spleen Weight,spleen cell populations; 6 days,45.8 ± 7.6* mg
same,Baso-phils,[1]; [3],0.03 ± 0.01 * x 10^3/µl
same,Eosino-phils,[1]; [3],0.14 ± 0.06 x 10^3/µl
same,HCT,[1]; [3],51.6 ± 1.5* %
same,HGB,[1]; [3],13.4 ± 0.4** g/dL
same,Lympho-cytes,[1]; [3],6.2 ± 1.6 x 10^3/µl
same,Mono-cytes,[1]; [3],0.04 ± 0.01 x 10^3/µl
same,Neutro-phils,[1]; [3],0.78 ± 0.18 x 10^3/µl
same,Platelets,[1]; [3],2244 ± 85** x 10^3/µl
same,Platelets MPV,[1]; [3],6.9 ± 0.2** fL
same,RBC,[1]; [3],9.65 ± 0.27* x 10^6/µl
same,Retic,[1]; [3],803 ± 18** x 10^9/L
same,WBC,[1]; [3],7.4 ± 1.7 x 10^3/µl
same,Baso-phils,[1]; [4],0.04 ± 0.01 x 10^3/µl
same,Eosino-phils,[1]; [4],0.06 ± 0.03 * x 10^3/µl
same,HCT,[1]; [4],50.3 ± 0.6** %
same,HGB,[1]; [4],13.0 ± 0.1** g/dL
same,Lympho-cytes,[1]; [4],4.7 ± 1.5** x 10^3/µl
same,Mono-cytes,[1]; [4],0.05 ± 0.01 x 10^3/µl
same,Neutro-phils,[1]; [4],0.86 ± 0.34 x 10^3/µl
same,Platelets,[1]; [4],2376 ± 171 ** x 10^3/µl
same,Platelets MPV,[1]; [4],6.8 ± 0.1** fL
same,RBC,[1]; [4],9.41 ± 0.13** x 10^6/µl
same,Retic,[1]; [4],911 ± 64** x 10^9/L
same,WBC,[1]; [4],5.9 ± 1.9* x 10^3/µl
same,Baso-phils,[1]; 3 days,0.03 ± 0.03 x 10^3/µl
same,Eosino-phils,[1]; 3 days,0.26 ± 0.09 x 10^3/µl
same,HCT,[1]; 3 days,50.4 ± 0.8** %
same,HGB,[1]; 3 days,13.7 ± 0.2** g/dL
same,Lympho-cytes,[1]; 3 days,4.2 ± 0.9** x 10^3/µl
same,Mono-cytes,[1]; 3 days,0.05 ± 0.02 x 10^3/µl
same,Neutro-phils,[1]; 3 days,0.61 ± 0.07 x 10^3/µl
same,Platelets,[1]; 3 days,1611 ± 85** x 10^3/µl
same,Platelets MPV,[1]; 3 days,6.6 ± 0.4 fL
same,RBC,[1]; 3 days,9.29 ± 0.04** x 10^6/µl
same,Retic,[1]; 3 days,43 ± 6** x 10^9/L
same,WBC,[1]; 3 days,5.3 ± 1.0** x 10^3/µl
same,Baso-phils,[1]; 6 days,0.02 ± 0.01** x 10^3/µl
same,Eosino-phils,[1]; 6 days,0.19 ± 0.06 x 10^3/µl
same,HCT,[1]; 6 days,48.7 ± 2.5** %
same,HGB,[1]; 6 days,12.9 ± 0.5** g/dL
same,Lympho-cytes,[1]; 6 days,3.5 ± 0.4** x 10^3/µl
same,Mono-cytes,[1]; 6 days,0.05 ± 0.02 x 10^3/µl
same,Neutro-phils,[1]; 6 days,0.60 ± 0.16 x 10^3/µl
same,Platelets,[1]; 6 days,2534 ± 88** x 10^3/µl
same,Platelets MPV,[1]; 6 days,6.1 ± 0.2** fL
same,RBC,[1]; 6 days,8.80 ± 0.39** x 10^6/µl
same,Retic,[1]; 6 days,162 ± 24** x 10^9/L
same,WBC,[1]; 6 days,4.6 ± 0.6** x 10^3/µl
